Patent US20260262643A1, “HERBICIDAL BENZOXAZINES” (FMC CORPORATION, priority 2022, published 2026)

Tests used:
kochia [1] = assay: Test C preemergence; format: in vivo, Bassia scoparia
Summary of the method: (§1)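 Soil-applied (pre) and foliar (post, 1–2 leaf, 2–10 cm) sprays; surfactant-containing non-phytotoxic solvent vehicle; loam/sand substrate. Readout: visual % control at 10 d, greenhouse, versus untreated.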

oat, wild [2] = assay: Test C preemergence; format: in vivo, Avena fatua
Summary of the method: as §1

barnyardgrass [3] = assay: Test C preemergence; format: in vivo, Echinochloa crusgalli
Summary of the method: as §1

barnyardgrass [4] = assay: Test C postemergence; format: in vivo, Echinochloa crusgalli; settings: 10 days, 0 to 100 scale (0 no effect, 100 complete control)
Summary of the method: as §1

wheat [5] = assay: Test C postemergence; format: in vivo, Triticum aestivum; settings: 10 days, 0 to 100 scale (0 no effect, 100 complete control)
Summary of the method: as §1

foxtail, giant [6] = assay: Test C preemergence; format: in vivo, Setaria faberi
Description: (§2) Seeds of plant species selected from barnyardgrass (Echinochloa crusgalli), blackgrass (Alopecurus myosuroides), corn (Zea mays), foxtail, giant (giant foxtail, Setaria faberi), green foxtail (Setaria viridis), goosegrass (Eleusine indica), kochia (Bassia scoparia), oat, wild (wild oat, Avena fatua), pigweed, palmer (palmer amaranth, palmer pigweed, Amaranthus palmeri), Pigweed, Redroot (redroot pigweed, Amaranthus retroflexus), ragweed (common ragweed, Ambrosia artemisiifolia), ryegrass, Italian ([…] ryegrass, Lolium multiflorum), soybean (Glycine max), and wheat (Triticum aestivum) were planted into a blend of loam soil and sand and treated preemergence with a directed soil spray using test chemicals formulated in a non-phytotoxic solvent mixture which included a surfactant. At the same time, plants selected from these crops and weed species and also galium (catchweed bedstraw, Galium aparine) and horseweed (Erigeron canadensis) were planted in pots containing the same blend of loam soil and sand and treated with postemergence applications of test chemicals formulated in the same manner. Plants ranged in height from 2 to 10 cm and were in the one- to two-leaf stage for the postemergence treatment. Treated plants and untreated controls were maintained in a greenhouse for 10 days, after which time all treated plants were compared to untreated controls and visually evaluated for injury. Plant response ratings, summarized in Table C, are based on a 0 to 100 scale where 0 is no effect and 100 is complete control. A dash (-) response means no test result.

kochia [7] = assay: Test C postemergence; format: in vivo, Bassia scoparia; settings: 10 days, 0 to 100 scale (0 no effect, 100 complete control)
Summary of the method: as §1

galium = assay: Test C postemergence; format: in vivo, Galium aparine; settings: 10 days, 0 to 100 scale (0 no effect, 100 complete control)
Summary of the method: as §1

corn [8] = assay: Test C postemergence; format: in vivo, Zea mays; settings: 10 days, 0 to 100 scale (0 no effect, 100 complete control)
Summary of the method: as §1

pigweed, palmer [9] = assay: Test C preemergence; format: in vivo, Amaranthus palmeri
Summary of the method: as §1

foxtail, giant [10] = assay: Test C postemergence; format: in vivo, Setaria faberi; settings: 10 days, 0 to 100 scale (0 no effect, 100 complete control)
Description: as §2

ryegrass, Italian [11] = assay: Test C postemergence; format: in vivo, Lolium multiflorum; settings: 10 days, 0 to 100 scale (0 no effect, 100 complete control)
Summary of the method: as §1

ryegrass, Italian [12] = assay: Test C preemergence; format: in vivo, Lolium multiflorum
Summary of the method: as §1

ragweed [13] = assay: Test C preemergence; format: in vivo, Ambrosia artemisiifolia
Summary of the method: as §1

corn [14] = assay: Test C preemergence; format: in vivo, Zea mays
Summary of the method: as §1

blackgrass [15] = assay: Test C postemergence; format: in vivo, Alopecurus myosuroides; settings: 10 days, 0 to 100 scale (0 no effect, 100 complete control)
Summary of the method: as §1

sedge, umbrella = assay: Test D flooded paddy test; format: in vivo, Cyperus difformis; settings: 250 g ai/ha, applied to paddy water, visual rating after 13 to 14 days, scale 0 to 100 (0 no effect, 100 complete control)
Summary of the method: (§3)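 Compounds go straight into paddy water over 2-leaf plants in pots flooded to 3 cm. Greenhouse holding lasts 13 to 14 days. Injury is scored by eye against controls from 0 (none) to 100 (complete control).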

rice = assay: Test D flooded paddy test; format: in vivo, Oryza sativa; settings: 250 g ai/ha, applied to paddy water, visual rating after 13 to 14 days, scale 0 to 100 (0 no effect, 100 complete control)
Summary of the method: as §3

blackgrass [16] = assay: Test C preemergence; format: in vivo, Alopecurus myosuroides
Summary of the method: as §1

ragweed [17] = assay: Test C postemergence; format: in vivo, Ambrosia artemisiifolia; settings: 10 days, 0 to 100 scale (0 no effect, 100 complete control)
Summary of the method: as §1

ducksalad = assay: Test D flooded paddy test; format: in vivo, Heteranthera limosa; settings: 250 g ai/ha, applied to paddy water, visual rating after 13 to 14 days, scale 0 to 100 (0 no effect, 100 complete control)
Summary of the method: as §3

pigweed, palmer [18] = assay: Test C postemergence; format: in vivo, Amaranthus palmeri; settings: 10 days, 0 to 100 scale (0 no effect, 100 complete control)
Summary of the method: as §1

soybean [19] = assay: Test C postemergence; format: in vivo, Glycine max; settings: 10 days, 0 to 100 scale (0 no effect, 100 complete control)
Summary of the method: as §1

horseweed = assay: Test C postemergence; format: in vivo, Erigeron canadensis; settings: 10 days, 0 to 100 scale (0 no effect, 100 complete control)
Summary of the method: as §1

oat, wild [20] = assay: Test C postemergence; format: in vivo, Avena fatua; settings: 10 days, 0 to 100 scale (0 no effect, 100 complete control)
Summary of the method: as §1

wheat [21] = assay: Test C preemergence; format: in vivo, Triticum aestivum
Summary of the method: as §1

soybean [22] = assay: Test C preemergence; format: in vivo, Glycine max
Summary of the method: as §1

barnyardgrass [23] = assay: Test D flooded paddy test; format: in vivo, Echinochloa crus-galli; settings: 250 g ai/ha, applied to paddy water, visual rating after 13 to 14 days, scale 0 to 100 (0 no effect, 100 complete control)
Summary of the method: as §3

[24] = 500 g ai/ha, preemergence, 0 to 100 scale (0 no effect, 100 complete control)
[25] = Preemergence, 125 g ai/ha, 0 to 100 scale, 0 no effect, 100 complete control

With `Cc1cccc2c1OC(C(F)(F)F)CN2C(=O)c1ccnc(-n2cnc(C(C)C)n2)c1` (stereo not shown) [Compound 327] the “Kochia plant response rating” value (kochia [1]; [24]) was 90, the “Plant response rating, Kochia” value (kochia [1]; [25]) was 20 and the “Oat, Wild plant response rating” value (oat, wild [2]; [24]) was 70. The “Plant response rating, Oat, Wild” value (oat, wild [2]; [25]) was 20, the “Barnyardgrass plant response rating” value (barnyardgrass [3]; [24]) was 90 and the “Plant response rating, Barnyardgrass” value (barnyardgrass [3]; [25]) was 50. The “Plant response rating, Barnyardgrass” value (barnyardgrass [4]; 500 g ai/ha, postemergence) was 90, the “Plant response rating, Barnyardgrass” value (barnyardgrass [4]; Postemergence, 125 g ai/ha) was 40 and the “Plant response rating, Wheat” value (wheat [5]; 500 g ai/ha, postemergence) was 30. For the same molecule, the “Plant response rating, Wheat” value (wheat [5]; Postemergence, 125 g ai/ha) was 20, the “Foxtail, Giant plant response rating” value (foxtail, giant [6]; [24]) was 100 and the “Plant response rating, Foxtail, Giant” value (foxtail, giant [6]; [25]) was 100. For the same molecule, the “Plant response rating, Kochia” value (kochia [7]; 500 g ai/ha, postemergence) was 90, the “Plant response rating, Kochia” value (kochia [7]; Postemergence, 125 g ai/ha) was 40 and the “Plant response rating, Galium” value (galium; 500 g ai/ha, postemergence) was 100. The “Plant response rating, Galium” value (galium; Postemergence, 125 g ai/ha) was 70, the “Plant response rating, Corn” value (corn [8]; 500 g ai/ha, postemergence) was 90 and the “Plant response rating, Corn” value (corn [8]; Postemergence, 125 g ai/ha) was 70. For the same molecule, the “Pigweed, Palmer plant response rating” value (pigweed, palmer [9]; [24]) was 90, the “Plant response rating, Pigweed, Palmer” value (pigweed, palmer [9]; [25]) was 50 and the “Plant response rating, Foxtail, Giant” value (foxtail, giant [10]; 500 g ai/ha, postemergence) was 90. For the same molecule, the “Plant response rating, Foxtail, Giant” value (foxtail, giant [10]; Postemergence, 125 g ai/ha) was 60, the “Plant response rating, Ryegrass, Italian” value (ryegrass, Italian [11]; 500 g ai/ha, postemergence) was 80 and the “Plant response rating, Ryegrass, Italian” value (ryegrass, Italian [11]; Postemergence, 125 g ai/ha) was 40. For the same molecule, the “Ryegrass, Italian plant response rating” value (ryegrass, Italian [12]; [24]) was 100, the “Plant response rating, Ryegrass, Italian” value (ryegrass, Italian [12]; [25]) was 90 and the “Ragweed plant response rating” value (ragweed [13]; [24]) was 30. For the same molecule, the “Plant response rating, Ragweed” value (ragweed [13]; [25]) was 0, the “Corn plant response rating” value (corn [14]; [24]) was 70 and the “Plant response rating, Corn” value (corn [14]; [25]) was 20. For the same molecule, the “Plant response rating, Blackgrass” value (blackgrass [15]; 500 g ai/ha, postemergence) was 90, the “Plant response rating, Blackgrass” value (blackgrass [15]; Postemergence, 125 g ai/ha) was 30 and the “Plant response rating, Sedge, Umbrella (Flood)” value (sedge, umbrella) was 70. The “Plant response rating, Rice (Flood)” value (rice) was 0, the “Blackgrass plant response rating” value (blackgrass [16]; [24]) was 90 and the “Plant response rating, Blackgrass” value (blackgrass [16]; [25]) was 90. The “Plant response rating, Ragweed” value (ragweed [17]; 500 g ai/ha, postemergence) was 40, the “Plant response rating, Ragweed” value (ragweed [17]; Postemergence, 125 g ai/ha) was 30 and the “Plant response rating, Ducksalad (Flood)” value (ducksalad) was 25. The “Plant response rating, Pigweed, Palmer” value (pigweed, palmer [18]; 500 g ai/ha, postemergence) was 50, the “Plant response rating, Pigweed, Palmer” value (pigweed, palmer [18]; Postemergence, 125 g ai/ha) was 30 and the “Plant response rating, Soybean” value (soybean [19]; 500 g ai/ha, postemergence) was 100. The “Plant response rating, Soybean” value (soybean [19]; Postemergence, 125 g ai/ha) was 100, the “Plant response rating, Horseweed” value (horseweed; 500 g ai/ha, postemergence) was 60 and the “Plant response rating, Horseweed” value (horseweed; Postemergence, 125 g ai/ha) was 0. For the same molecule, the “Plant response rating, Oat, Wild” value (oat, wild [20]; 500 g ai/ha, postemergence) was 90, the “Plant response rating, Oat, Wild” value (oat, wild [20]; Postemergence, 125 g ai/ha) was 40 and the “Wheat plant response rating” value (wheat [21]; [24]) was 90. The “Plant response rating, Wheat” value (wheat [21]; [25]) was 40, the “Soybean plant response rating” value (soybean [22]; [24]) was 100 and the “Plant response rating, Soybean” value (soybean [22]; [25]) was 100. The “Plant response rating, Barnyardgrass (Flood)” value (barnyardgrass [23]) was 15.
